Patent US20140206629A1, “Stromal Derived Factor Inhibition And CXCR4 Blockade” (RHODE ISLAND HOSPITAL, priority 2011, published 2014)
“Also recorded” adds a separate entry of the source.

How the values were obtained:
[1] = tested on: IL-1β induced SDF-1 expression in human subacromial bursal cells; assay: SDF-1α protein (ELISA) in supernatants of IL-1β-treated cultured bursal cells with inhibitors; format: cell-based; conditions: bursal cells treated with IL-1β 20 ng/mL plus inhibitor
Procedure: (§1) Human subacromial bursal biopsy specimens were obtained as above. Tissues were washed with Hank's balanced salt solution (Gibco), minced with scissors, and resuspended in Dulbecco's minimum essential medium (DMEM, Gibco) containing 1 mg/ml collagenase, 0.15 mg/ml DNase, and 0.15 mg/ml hyaluronidase. The tissue was enzymatically digested for 2 hours at 37° C. and then passed through sterile gauze to remove any undigested fragments. Cells were seeded in 75 cm2 flasks with DMEM supplemented with 10% fetal bovine serum (FBS), 100 U/ml penicillin, 100 μg/ml streptomycin, and 0.1% fungizone (amphotericin B) and grown at 37° C. in a humidified atmosphere of 5% CO2 and 95% air. Subcultures were performed with Trypsin-EDTA treatment (Gibco).
Subacromial bursal cells were cultured as above. After the first passage, cells were plated into 6-well plates and grown to 85% confluence. Wells were then treated (in triplicate) with IL-1β 20 ng/mL and respective inhibitors (AMD3100, T140 analog, dexamethasone or NSAID). After 24 hours, supernatants were collected and assayed for SDF-1α expression using Quantikineâ Human SDF-1α enzyme immunoassay kit (R & D System) according to the manufacturer's instructions. Standard curves were reconstituted using SDF-1α protein. The optical density of each well was determined using a microplate reader set to 450 nm wavelength. […]

[2] = tested on: IL-1β induced SDF-1 mRNA expression in human subacromial bursal cells; assay: SDF-1α mRNA (RT-PCR) in IL-1β-treated cultured bursal cells with inhibitors; format: cell-based; conditions: bursal cells treated with IL-1β plus inhibitor
Procedure: Subacromial bursal cells were cultured as above. First-passaged cells were treated with IL-1β and respective inhibitors as above. Total RNA was isolated using Qiagen RNeasy Mini Kit (Qiagen, Valencia, Calif.). First-strand cDNA was synthesized using 1 μg of total RNA and Superscript III™ First-Strand Synthesis System (Invitrogen). […] All PCR were performed in 25-μl reactions on a DNA Engine Opticon™ 2 Detection System (MJ Research, Hercules, Calif.) for 40 cycles in which each cycles consisted of 15 sec at 95° C., 15 sec at 60° C., and 20 sec at 72° C. Results were standardized to GAPDH housekeeping gene. Statistical analysis was performed using the student's t-test. […]

[3] = tested on: human subacromial bursal cells; assay: Cell migration assay of bursal cells in response to SDF-1 stimulation; format: cell-based; conditions: in the presence of CXCR4 inhibitor
From the text: FIG. 6 is a bar graph showing cell migration assay of human subacromial bursal cells in the presence of CXCR4 inhibitors AMD3100 and T140.

CCR5 = CCR5 (Homo sapiens, UniProt P51681); conditions: cited from earlier work
Sequence of CCR5 (P51681 whole entry): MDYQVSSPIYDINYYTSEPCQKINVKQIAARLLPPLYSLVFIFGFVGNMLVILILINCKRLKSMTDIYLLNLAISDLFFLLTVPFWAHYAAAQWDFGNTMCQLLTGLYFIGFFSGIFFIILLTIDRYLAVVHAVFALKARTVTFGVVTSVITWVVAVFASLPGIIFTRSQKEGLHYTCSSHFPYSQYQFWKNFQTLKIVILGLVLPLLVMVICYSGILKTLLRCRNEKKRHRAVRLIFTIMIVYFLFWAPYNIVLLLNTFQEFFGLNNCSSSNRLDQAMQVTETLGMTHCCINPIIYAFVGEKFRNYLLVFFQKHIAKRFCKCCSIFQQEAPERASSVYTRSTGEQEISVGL

[4] = tested on: human subacromial bursal cells; assay: Cytokine stimulation of SDF-1α protein production in cultured bursal cells (ELISA); format: cell-based
Procedure: as §1
SDF-1 expression was induced by stimulating bursal cells with IL-1β. SDF-1 levels were measured in cell supernatants and mRNA levels were tested using real-time RT-PCR at various time points. SDF-1 expression increased with time and occurred in a dose-dependent fashion. […] (FIG. 3) These experiments were reproducible with cells grown from several different tissue samples.
(§2) Subacromial bursa specimens were obtained from patients undergoing shoulder surgery. […] Early-passaged cells were then treated with cytokines ([…] and IL-6) and SDF-1α expression was measured by ELISA and RT-PCR.

[5] = tested on: human subacromial bursal cells; assay: Cytokine stimulation of SDF-1α mRNA expression in cultured bursal cells (RT-PCR); format: cell-based; conditions: cytokine-treated bursal cells vs controls; maximal at 24 hours
Procedure: as §1
Subacromial bursal cells were cultured as above. […] SDF-1 mRNA was quantified with SDF-1 specific primers SDF-1FOR (5′-GATTGTAGCCCGGCT GAAGAA-3′) (SEQ ID NO: 11) and SDF-1BACK (5′-[…]-3′) (SEQ ID NO: 12). […]
SDF-1 expression was induced by stimulating bursal cells with IL-1β. SDF-1 levels were measured in cell supernatants and mRNA levels were tested using real-time RT-PCR at various time points. […]
as §2

From the text for rat rotator cuff tendons: 58 male Lewis rat shoulders underwent surgery using an IACUC approved protocol. The infraspinatus tendon was transected at its insertion to create a tendon defect (FIG. 7). […] Animals were sacrificed at 3, 7, 14, 28 or 42 days. Eight uninjured rat shoulders were used as controls. Preconditioned for 5 cycles to 0.38 mm displacement in tension at a rate of 0.1 mm/s Stress relaxation test for 300 s duration at 0.38 displacement in tension Return to 0.2 N tension followed by a 300 s latency period Tension to failure at a displacement rate of 0.1 mm/s

Molecule	decrease of SDF-1α protein production/expression in supernatants [1]	SDF-1α mRNA expression [2]	bursal cell migration in response to SDF-1 stimulation [3]	inflammation in the subacromial bursa (rat rotator cuff tendons; rat shoulder with experimentally induced rotator cuff injury)	maximum load in the infraspinatus bone-tendon complex compared to controls (PBS) (rat rotator cuff tendons; rat, osmotic minipump, 3, 7, 14, 28 or 42 days post injury)	binding to chemokine receptor CCR5 (CCR5)	increase in SDF-1α protein production/expression ([4]; cytokine-treated bursal cells)	SDF-1α production, maximal stimulation ([4]; exposure to 20 ng/ml IL-1β)	increase in SDF-1α gene (mRNA) expression [5]
c1cc(CN2CCCNCCNCCCNCC2)ccc1CN1CCCNCCNCCCNCC1 [AMD3100, 1,1′-[1,4-phenylenebis(methylene)]-bis-1,4,8,11-azatetradecane]	40%	only a slight decrease	decreased	reduced inflammation	No statistically significant differences	does not bind	–	–	–
C[C@@H]1C[C@H]2[C@@H]3CCC4=CC(=O)C=C[C@]4(C)[C@@]3(F)[C@@H](O)C[C@]2(C)[C@@]1(O)C(=O)CO [dexamethasone]	87%	–	–	–	–	–	–	–	–
IL-1β	–	–	–	–	–	–	more than five-fold increase	630 pg/10^4 cells	nearly five-fold increase; also recorded: more than five-fold increase
